{"source": "PubChem BioAssay (NCI)", "test_in_all_cases": "NCI tumour cell line growth inhibition, 48 h", "key": {"SN12C renal": {"system": "SN12C renal"}, "SNB-75 CNS": {"system": "SNB-75 CNS"}, "DLD-1 colon": {"system": "DLD-1 colon"}, "HT29 colon": {"system": "HT29 colon"}, "NCI-H522 lung": {"system": "NCI-H522 lung"}, "CCRF-CEM leukemia": {"system": "CCRF-CEM leukemia"}, "HCT-15 colon": {"system": "HCT-15 colon"}, "OVCAR-3 ovarian": {"system": "OVCAR-3 ovarian"}, "UACC-257 melanoma": {"system": "UACC-257 melanoma"}, "EKVX NSCLC": {"system": "EKVX NSCLC"}, "KM12 colon": {"system": "KM12 colon"}, "HOP-62 NSCLC": {"system": "HOP-62 NSCLC"}, "SNB-19 CNS": {"system": "SNB-19 CNS"}, "SK-MEL-28 melanoma": {"system": "SK-MEL-28 melanoma"}, "OVCAR-5 ovarian": {"system": "OVCAR-5 ovarian"}, "HCC-2998 colon": {"system": "HCC-2998 colon"}, "HOP-92 NSCLC": {"system": "HOP-92 NSCLC"}, "HCT-116 colon": {"system": "HCT-116 colon"}, "RXF 393 renal": {"system": "RXF 393 renal"}, "NCI/ADR-RES ovarian": {"system": "NCI/ADR-RES ovarian"}, "SNB-78 CNS": {"system": "SNB-78 CNS"}, "K-562 leukemia": {"system": "K-562 leukemia"}, "COLO 205 colon": {"system": "COLO 205 colon"}, "MOLT-4 leukemia": {"system": "MOLT-4 leukemia"}, "OVCAR-4 ovarian": {"system": "OVCAR-4 ovarian"}, "U251 CNS": {"system": "U251 CNS"}, "DMS 273 small cell lung": {"system": "DMS 273 small cell lung"}, "SN12K1 renal": {"system": "SN12K1 renal"}, "IGROV1 ovarian": {"system": "IGROV1 ovarian"}, "HOP-18 NSCLC": {"system": "HOP-18 NSCLC"}, "SK-OV-3 ovarian": {"system": "SK-OV-3 ovarian"}, "NCI-H23 lung": {"system": "NCI-H23 lung"}, "M19-MEL melanoma": {"system": "M19-MEL melanoma"}, "RPMI-8226 leukemia": {"system": "RPMI-8226 leukemia"}, "A549 NSCLC": {"system": "A549 NSCLC"}, "CAKI-1 renal": {"system": "CAKI-1 renal"}, "P388/ADR leukemia": {"system": "P388/ADR leukemia"}, "SK-MEL-5 melanoma": {"system": "SK-MEL-5 melanoma"}, "SF-539 CNS": {"system": "SF-539 CNS"}, "MCF7 breast": {"system": "MCF7 breast"}, "NCI-H226 lung": {"system": "NCI-H226 lung"}, "NCI-H460 lung": {"system": "NCI-H460 lung"}, "LOX IMVI melanoma": {"system": "LOX IMVI melanoma"}, "UACC-62 melanoma": {"system": "UACC-62 melanoma"}, "A498 renal": {"system": "A498 renal"}, "OVCAR-8 ovarian": {"system": "OVCAR-8 ovarian"}, "SK-MEL-2 melanoma": {"system": "SK-MEL-2 melanoma"}, "UO-31 renal": {"system": "UO-31 renal"}, "SF-295 CNS": {"system": "SF-295 CNS"}, "KM20L2 colon": {"system": "KM20L2 colon"}, "SW-620 colon": {"system": "SW-620 colon"}, "MALME-3M melanoma": {"system": "MALME-3M melanoma"}, "XF 498 CNS": {"system": "XF 498 CNS"}, "SF-268 CNS": {"system": "SF-268 CNS"}, "TK-10 renal": {"system": "TK-10 renal"}, "M14 melanoma": {"system": "M14 melanoma"}, "MDA-MB-435": {"system": "MDA-MB-435"}, "DU-145 prostate": {"system": "DU-145 prostate"}, "SR leukemia": {"system": "SR leukemia"}, "786-0 renal": {"system": "786-0 renal"}, "T-47D breast": {"system": "T-47D breast"}, "PC-3 prostate": {"system": "PC-3 prostate"}, "HS 578T breast": {"system": "HS 578T breast"}, "MDA-N": {"system": "MDA-N"}, "ACHN renal": {"system": "ACHN renal"}, "BT-549 breast": {"system": "BT-549 breast"}}, "note": "“And” between values parts separate entries of the source, which are not always exact repeats. Equal entries are not always repeated.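 Test compounds were applied to cells in 96-well plates for 48 hours at 5 doses. GI50 = concentration required for 50% inhibition of growth. Definition used: TGI = concentration required for complete inhibition of growth.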"}
{"molecule": "CCCCS(=O)(=O)Nc1ccc(Nc2c3ccccc3nc3ccccc23)c(OC)c1", "values": [{"measurement": "TGI", "setting": "SN12C renal", "result": 5.77, "unit": "µM"}, {"measurement": "TGI", "setting": "SNB-75 CNS", "result": 7.69, "unit": "µM"}, {"measurement": "TGI", "setting": "DLD-1 colon", "result": 24.4, "unit": "µM"}, {"measurement": "TGI", "setting": "HT29 colon", "result": 6.37, "unit": "µM"}, {"measurement": "TGI", "setting": "NCI-H522 lung", "result": 18.7, "unit": "µM"}, {"measurement": "TGI", "setting": "CCRF-CEM leukemia", "result": 6.26, "unit": "µM"}, {"measurement": "TGI", "setting": "HCT-15 colon", "result": 9.11, "unit": "µM"}, {"measurement": "TGI", "setting": "OVCAR-3 ovarian", "result": 16.3, "unit": "µM"}, {"measurement": "TGI", "setting": "UACC-257 melanoma", "result": 18.6, "unit": "µM"}, {"measurement": "TGI", "setting": "EKVX NSCLC", "result": 14.4, "unit": "µM"}, {"measurement": "TGI", "setting": "KM12 colon", "result": 14.8, "unit": "µM"}, {"measurement": "TGI", "setting": "HOP-62 NSCLC", "result": 10.7, "unit": "µM"}, {"measurement": "TGI", "setting": "SNB-19 CNS", "result": 14.5, "unit": "µM"}, {"measurement": "TGI", "setting": "SK-MEL-28 melanoma", "result": 16.4, "unit": "µM"}, {"measurement": "TGI", "setting": "OVCAR-5 ovarian", "result": 26.6, "unit": "µM"}, {"measurement": "TGI", "setting": "HCC-2998 colon", "result": 16.7, "unit": "µM"}, {"measurement": "TGI", "setting": "HOP-92 NSCLC", "result": 9.08, "unit": "µM"}, {"measurement": "TGI", "setting": "HCT-116 colon", "result": 8.11, "unit": "µM"}, {"measurement": "TGI", "setting": "RXF 393 renal", "result": 11, "unit": "µM"}, {"measurement": "TGI", "setting": "NCI/ADR-RES ovarian", "result": 22, "unit": "µM"}, {"measurement": "TGI", "setting": "SNB-78 CNS", "result": 18.9, "unit": "µM"}, {"measurement": "TGI", "setting": "K-562 leukemia", "result": 16.5, "unit": "µM"}, {"measurement": "TGI", "setting": "COLO 205 colon", "result": 20.2, "unit": "µM"}, {"measurement": "TGI", "setting": "MOLT-4 leukemia", "result": 3.97, "unit": "µM"}, {"measurement": "TGI", "setting": "OVCAR-4 ovarian", "result": 18.8, "unit": "µM"}, {"measurement": "TGI", "setting": "U251 CNS", "result": 5.85, "unit": "µM"}, {"measurement": "TGI", "setting": "DMS 273 small cell lung", "result": 3.37, "unit": "µM"}, {"measurement": "TGI", "setting": "SN12K1 renal", "result": 3.55, "unit": "µM"}, {"measurement": "TGI", "setting": "IGROV1 ovarian", "result": 24.9, "unit": "µM"}, {"measurement": "TGI", "setting": "HOP-18 NSCLC", "result": 19.8, "unit": "µM"}, {"measurement": "TGI", "setting": "SK-OV-3 ovarian", "result": 16.9, "unit": "µM"}, {"measurement": "TGI", "setting": "NCI-H23 lung", "result": 11.3, "unit": "µM"}, {"measurement": "TGI", "setting": "M19-MEL melanoma", "result": 19.6, "unit": "µM"}, {"measurement": "TGI", "setting": "RPMI-8226 leukemia", "result": "> 21.4", "unit": "µM"}, {"measurement": "TGI", "setting": "A549 NSCLC", "result": 7.07, "unit": "µM"}, {"measurement": "TGI", "setting": "CAKI-1 renal", "result": 10.1, "unit": "µM"}, {"measurement": "TGI", "setting": "P388/ADR leukemia", "result": 2.88, "unit": "µM"}, {"measurement": "TGI", "setting": "SK-MEL-5 melanoma", "result": 18.1, "unit": "µM"}, {"measurement": "TGI", "setting": "SF-539 CNS", "result": 5.98, "unit": "µM"}, {"measurement": "TGI", "setting": "MCF7 breast", "result": 17.4, "unit": "µM"}, {"measurement": "TGI", "setting": "NCI-H226 lung", "result": 16.9, "unit": "µM"}, {"measurement": "TGI", "setting": "NCI-H460 lung", "result": 5.79, "unit": "µM"}, {"measurement": "TGI", "setting": "LOX IMVI melanoma", "result": 3.85, "unit": "µM"}, {"measurement": "TGI", "setting": "UACC-62 melanoma", "result": 7.48, "unit": "µM"}, {"measurement": "TGI", "setting": "A498 renal", "result": 9.85, "unit": "µM"}, {"measurement": "TGI", "setting": "OVCAR-8 ovarian", "result": 13.3, "unit": "µM"}, {"measurement": "TGI", "setting": "SK-MEL-2 melanoma", "result": 30.9, "unit": "µM"}, {"measurement": "TGI", "setting": "UO-31 renal", "result": 10.2, "unit": "µM"}, {"measurement": "TGI", "setting": "SF-295 CNS", "result": 9.84, "unit": "µM"}, {"measurement": "TGI", "setting": "KM20L2 colon", "result": 11.9, "unit": "µM"}, {"measurement": "TGI", "setting": "SW-620 colon", "result": 14.2, "unit": "µM"}, {"measurement": "TGI", "setting": "MALME-3M melanoma", "result": 7.99, "unit": "µM"}, {"measurement": "TGI", "setting": "XF 498 CNS", "result": 10.5, "unit": "µM"}, {"measurement": "TGI", "setting": "SF-268 CNS", "result": 14.5, "unit": "µM"}]}
{"molecule": "COc1cc2cc(c1Cl)N(C)C(=O)C[C@H](OC(=O)[C@H](C)N(C)C(C)=O)[C@]1(C)O[C@H]1[C@H](C)[C@@H]1C[C@@](O)(NC(=O)O1)[C@H](OC)C=C/C=C(\\C)C2", "values": [{"measurement": "GI50", "setting": "TK-10 renal", "result": 0.0144, "unit": "µM"}, {"measurement": "TGI", "setting": "TK-10 renal", "result": 0.0804, "unit": "µM"}, {"measurement": "GI50", "setting": "M14 melanoma", "result": 0.00128, "unit": "µM"}, {"measurement": "GI50", "setting": "MDA-MB-435", "result": 0.00168, "unit": "µM"}, {"measurement": "TGI", "setting": "MDA-MB-435", "result": "0.00755 µM and < 0.0146 µM"}, {"measurement": "GI50", "setting": "DU-145 prostate", "result": 0.0553, "unit": "µM"}, {"measurement": "GI50", "setting": "SR leukemia", "result": 0.000336, "unit": "µM"}, {"measurement": "TGI", "setting": "SR leukemia", "result": 0.0106, "unit": "µM"}, {"measurement": "GI50", "setting": "786-0 renal", "result": 0.0019, "unit": "µM"}, {"measurement": "GI50", "setting": "T-47D breast", "result": 0.0142, "unit": "µM"}, {"measurement": "TGI", "setting": "T-47D breast", "result": 0.0714, "unit": "µM"}, {"measurement": "TGI", "setting": "HOP-18 NSCLC", "result": "> 95.6 µM and 239 µM"}, {"measurement": "GI50", "setting": "PC-3 prostate", "result": 0.0371, "unit": "µM"}, {"measurement": "GI50", "setting": "HS 578T breast", "result": 0.000745, "unit": "µM"}, {"measurement": "TGI", "setting": "P388/ADR leukemia", "result": "1.87 µM and 9.07 µM"}, {"measurement": "TGI", "setting": "MDA-N", "result": "0.0709 µM and 0.0274 µM"}, {"measurement": "GI50", "setting": "ACHN renal", "result": 0.00211, "unit": "µM"}, {"measurement": "TGI", "setting": "ACHN renal", "result": 0.0595, "unit": "µM"}, {"measurement": "GI50", "setting": "BT-549 breast", "result": 0.000623, "unit": "µM"}]}
